These are literature values, as cited in US8933112B2, “Topical liquid to ameliorate pain and promote healing of burn-injured skin” (Memphaceuticals, LLC, priority 2012, dated 2015).

Data set [1] concerns Ca^2+-dependent K^+ channels of human red blood cells, rat thymocytes, and Ehrlich ascites tumor cells. Conditions: among tioconazole, miconazole, econazole, clotrimazole.
Data set [2] relates to Lewis lung carcinoma cells and CT-26 colon adenocarcinoma cells.
The next data set concerns human T lymphocytes. Conditions: by blocking Ca2+-sensitive K+ channels.
In data set [3] the target is T1, 6-phosphofructo-1-kinase (PFK) (Oryctolagus cuniculus, UniProt P00511).
T1 sequence (P00511 2-780 limits assumed): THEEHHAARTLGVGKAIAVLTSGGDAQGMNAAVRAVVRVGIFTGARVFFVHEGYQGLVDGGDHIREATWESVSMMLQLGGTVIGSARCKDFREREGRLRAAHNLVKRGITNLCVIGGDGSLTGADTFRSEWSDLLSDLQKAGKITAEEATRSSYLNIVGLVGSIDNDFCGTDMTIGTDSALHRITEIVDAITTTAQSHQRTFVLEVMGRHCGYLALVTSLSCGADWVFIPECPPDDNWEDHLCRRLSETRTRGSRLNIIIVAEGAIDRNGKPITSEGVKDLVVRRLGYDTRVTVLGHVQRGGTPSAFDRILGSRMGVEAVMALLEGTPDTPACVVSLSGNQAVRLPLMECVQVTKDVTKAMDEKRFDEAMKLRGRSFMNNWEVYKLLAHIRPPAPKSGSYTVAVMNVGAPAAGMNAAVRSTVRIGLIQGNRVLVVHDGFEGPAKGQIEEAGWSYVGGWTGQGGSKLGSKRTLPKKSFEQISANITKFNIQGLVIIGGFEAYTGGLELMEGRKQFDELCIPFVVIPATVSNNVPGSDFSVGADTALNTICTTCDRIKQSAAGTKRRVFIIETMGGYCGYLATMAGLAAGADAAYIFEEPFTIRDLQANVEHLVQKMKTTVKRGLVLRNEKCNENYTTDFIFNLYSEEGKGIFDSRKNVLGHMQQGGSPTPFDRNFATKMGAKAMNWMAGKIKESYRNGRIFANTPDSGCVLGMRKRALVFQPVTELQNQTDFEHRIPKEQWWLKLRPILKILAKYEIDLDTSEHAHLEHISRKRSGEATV
Conditions: independent of anti-calmodulin activity.

Data set [4] addresses T2, nitric-oxide synthase in bovine brain (Bos taurus, UniProt A0A3Q1M6M2).
T2 construct: nitric-oxide synthase in bovine brain; host or cells: bovine brain

SMILES strings stand for the structures.

T2 sequence (A0A3Q1M6M2 1-1468): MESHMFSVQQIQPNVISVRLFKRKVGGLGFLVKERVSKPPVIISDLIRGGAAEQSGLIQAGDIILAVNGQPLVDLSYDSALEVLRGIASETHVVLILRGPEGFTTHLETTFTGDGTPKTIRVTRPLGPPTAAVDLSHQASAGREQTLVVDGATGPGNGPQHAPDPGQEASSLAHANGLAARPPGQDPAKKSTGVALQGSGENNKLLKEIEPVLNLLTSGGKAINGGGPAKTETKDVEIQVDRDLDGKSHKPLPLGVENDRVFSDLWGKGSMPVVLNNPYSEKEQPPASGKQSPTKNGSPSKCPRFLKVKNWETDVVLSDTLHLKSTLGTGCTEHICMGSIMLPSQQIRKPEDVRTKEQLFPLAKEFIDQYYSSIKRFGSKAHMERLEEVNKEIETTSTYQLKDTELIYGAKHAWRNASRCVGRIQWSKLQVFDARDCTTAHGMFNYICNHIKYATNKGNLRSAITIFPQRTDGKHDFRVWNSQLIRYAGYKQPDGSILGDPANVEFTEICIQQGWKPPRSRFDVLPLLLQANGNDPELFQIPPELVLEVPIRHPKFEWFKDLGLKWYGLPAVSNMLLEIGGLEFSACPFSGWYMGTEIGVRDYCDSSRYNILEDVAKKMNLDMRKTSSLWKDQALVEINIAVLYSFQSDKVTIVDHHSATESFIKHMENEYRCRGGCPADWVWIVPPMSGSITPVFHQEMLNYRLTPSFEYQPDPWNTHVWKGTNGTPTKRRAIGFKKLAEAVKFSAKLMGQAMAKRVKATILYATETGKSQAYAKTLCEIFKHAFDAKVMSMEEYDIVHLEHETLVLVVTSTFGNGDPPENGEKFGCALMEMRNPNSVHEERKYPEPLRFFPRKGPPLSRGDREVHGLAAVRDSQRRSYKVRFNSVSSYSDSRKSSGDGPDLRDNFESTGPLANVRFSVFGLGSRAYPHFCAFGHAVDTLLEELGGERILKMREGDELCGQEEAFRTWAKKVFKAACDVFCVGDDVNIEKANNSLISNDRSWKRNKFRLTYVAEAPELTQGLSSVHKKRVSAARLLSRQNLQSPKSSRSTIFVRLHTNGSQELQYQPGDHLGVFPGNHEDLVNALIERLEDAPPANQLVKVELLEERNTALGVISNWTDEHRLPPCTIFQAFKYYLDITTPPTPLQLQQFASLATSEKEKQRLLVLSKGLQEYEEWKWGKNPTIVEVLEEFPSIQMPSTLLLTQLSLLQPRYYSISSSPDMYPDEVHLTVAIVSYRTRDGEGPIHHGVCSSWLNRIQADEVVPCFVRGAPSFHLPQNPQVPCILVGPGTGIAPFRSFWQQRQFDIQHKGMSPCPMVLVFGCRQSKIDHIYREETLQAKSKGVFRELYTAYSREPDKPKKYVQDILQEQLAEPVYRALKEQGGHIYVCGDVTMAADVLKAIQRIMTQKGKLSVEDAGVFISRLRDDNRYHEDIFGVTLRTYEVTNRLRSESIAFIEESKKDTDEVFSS

On to `Clc1ccccc1C(c1ccccc1)(c1ccccc1)n1ccnc1` [clotrimazole, 1-(o-chloro-α,α-diphenylbenzyl)imidazole], for which the “inhibition of Ca2+-dependent K+ channels” value in data set [1] is given as “most potent inhibitor”. Further, in data set [2], the “levels of glucose 1,6-bisphosphate, fructose 1,6-bisphosphate, ATP, and cell viability” value is recorded as “significant reduction”. The “activation of human T lymphocytes” value in the data set on human T lymphocytes was “inhibits activation”. The “inhibition of PFK” value in data set [3] is listed as “directly inhibits”. Also, the “citrulline formation by nitric-oxide synthase” value in data set [4] (bovine brain) is recorded as “inhibited citrulline formation”. Further, in data set [4] (calmodulin-dependent fashion), the “cytochrome-c reductase activity of nitric-oxide synthase” value is “inhibited the cytochrome-c reductase activity”.
